Data reported in patent US20250145585A1, “HETEROCYCLIC INHIBITORS OF IGF-1R FOR TREATMENT OF DISEASE” (HORIZON THERAPEUTICS IRELAND DAC, priority 2023, published 2025).

Target: T1, IGF-1R (Homo sapiens, UniProt P08069)
T1 construct: expressed in transfected cells
Experiment: Example B-2: IGF-1R Assay (PathHunter cell lines, EC80 agonist challenge, chemiluminescent detection)
Type: cell-based
Settings: PathHunter cells, compound 60 minutes at 37° C., EC80 agonist 3 hours; read-out: IC50, Biological Activity against IGF-1R (Table B2)
Method in brief: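 Read-out is PathHunter chemiluminescence, developed for 1 h at room temperature after a 3 h room-temperature EC80 agonist challenge that followed 60 min compound pre-treatment at 37° C (1% vehicle). IC50 comes from % inhibition normalized to EC80 and vehicle controls.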

T1 sequence (P08069 31-1367): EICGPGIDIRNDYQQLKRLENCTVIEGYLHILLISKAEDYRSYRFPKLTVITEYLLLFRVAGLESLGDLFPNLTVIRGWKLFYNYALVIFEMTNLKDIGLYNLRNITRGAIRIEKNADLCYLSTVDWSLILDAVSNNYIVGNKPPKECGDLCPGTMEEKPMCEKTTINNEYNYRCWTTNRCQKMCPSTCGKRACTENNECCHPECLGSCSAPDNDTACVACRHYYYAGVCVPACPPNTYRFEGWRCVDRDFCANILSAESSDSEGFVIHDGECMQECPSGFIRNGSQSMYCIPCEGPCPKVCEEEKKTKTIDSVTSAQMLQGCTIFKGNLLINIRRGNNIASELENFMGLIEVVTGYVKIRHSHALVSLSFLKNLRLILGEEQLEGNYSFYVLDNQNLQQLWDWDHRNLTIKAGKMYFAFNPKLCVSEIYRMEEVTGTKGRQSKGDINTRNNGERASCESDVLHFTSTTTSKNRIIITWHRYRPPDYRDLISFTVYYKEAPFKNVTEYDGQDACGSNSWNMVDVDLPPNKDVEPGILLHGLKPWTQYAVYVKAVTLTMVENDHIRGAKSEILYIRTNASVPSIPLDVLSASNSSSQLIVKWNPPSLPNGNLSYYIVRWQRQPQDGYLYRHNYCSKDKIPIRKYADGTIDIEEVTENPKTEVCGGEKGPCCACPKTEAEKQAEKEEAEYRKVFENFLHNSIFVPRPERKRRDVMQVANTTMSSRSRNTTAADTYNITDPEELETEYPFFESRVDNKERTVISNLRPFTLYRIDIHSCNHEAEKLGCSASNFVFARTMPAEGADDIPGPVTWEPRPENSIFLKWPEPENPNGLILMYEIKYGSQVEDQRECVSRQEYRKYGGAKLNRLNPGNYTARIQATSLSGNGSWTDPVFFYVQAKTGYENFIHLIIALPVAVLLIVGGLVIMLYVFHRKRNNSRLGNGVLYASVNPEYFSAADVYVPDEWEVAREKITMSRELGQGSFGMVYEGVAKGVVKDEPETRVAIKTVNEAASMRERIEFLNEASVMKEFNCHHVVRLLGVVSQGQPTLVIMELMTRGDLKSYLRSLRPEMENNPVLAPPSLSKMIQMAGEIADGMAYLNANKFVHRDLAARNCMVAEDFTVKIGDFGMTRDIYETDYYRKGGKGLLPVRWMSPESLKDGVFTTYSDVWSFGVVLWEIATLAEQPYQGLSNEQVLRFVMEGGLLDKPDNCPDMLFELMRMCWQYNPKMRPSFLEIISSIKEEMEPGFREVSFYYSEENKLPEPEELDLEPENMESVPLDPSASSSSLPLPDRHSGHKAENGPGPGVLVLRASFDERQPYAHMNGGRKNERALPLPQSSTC

With `CC1(C)C(=O)N(c2ccc(C3(C(F)(F)F)CC3)cc2)C(=O)N1Cc1ccnc(NCc2nnc[nH]2)c1` [Compound 174, 1-((2-(((4H-1,2,4-triazol-3-yl)methyl)amino)pyridin-4-yl)methyl)-5,5-dimethyl-3-(4-(1-(trifluoromethyl)cyclopropyl)phenyl) imidazolidine-2,4-dione] as the molecule, how does the IC50 read?
Its IC50 is no more than 500 nM.

How did the IC50 turn out when `CC1(C)C(=O)N(c2ccc(C3(C(F)(F)F)CC3)cc2)C(=O)N1Cc1ccnc(NCc2nc3ccccn3n2)c1` [Compound 175, 1-((2-(([1,2,4]triazolo[1,5-a]pyridin-2-ylmethyl)amino)pyridin-4-yl)methyl)-5,5-dimethyl-3-(4-(1-(trifluoromethyl)cyclopropyl)phenyl) imidazolidine-2,4-dione] was run?
Its IC50 is no more than 500 nM.

With `Cn1cncc1CNc1cc(CN2C(=O)N(c3ccc(C4(C(F)(F)F)CC4)cc3)C(=O)C2(C)C)ccn1` [Compound 176, 5,5-dimethyl-1-((2-(((1-methyl-1H-imidazol-5-yl)methyl)amino)pyridin-4-yl)methyl)-3-(4-(1-(trifluoromethyl)cyclopropyl)phenyl) imidazolidine-2,4-dione] as the molecule, how does the IC50 read?
The IC50 was no more than 500 nM.

How did the IC50 turn out when `CC1(C)C(=O)N(c2ccc(C3(C(F)(F)F)CC3)cc2)C(=O)N1Cc1ccnc(NCc2ncccn2)c1` [Compound 177, 5,5-dimethyl-1-((2-((pyrimidin-2-ylmethyl)amino)pyridin-4-yl)methyl)-3-(4-(1-(trifluoromethyl)cyclopropyl)phenyl) imidazolidine-2,4-dione] was run?
The IC50 was no more than 500 nM.

How did the IC50 turn out when `CC1(C)C(=O)N(c2ccc(C(F)(F)F)c(C#N)c2)C(=O)N1Cc1ccnc(N[C@H]2[C@@H]3COC[C@@H]32)c1` [Compound 180, 5-(3-((2-(((1R,5S,6r)-3-oxabicyclo[3.1.0]hexan-6-yl)amino)pyridin-4-yl)methyl)-4,4-dimethyl-2,5-dioxoimidazolidin-1-yl)-2-(trifluoromethyl)benzonitrile] was run?
The IC50 was greater than 10000 nM.

Which IC50 does the source give for `CC1(C)C(=O)N(c2ccc(C3(C(F)(F)F)CC3)cc2)C(=O)N1Cc1ccnc(NCc2ccncn2)c1` [Compound 181, 5,5-dimethyl-1-((2-((pyrimidin-4-ylmethyl)amino)pyridin-4-yl)methyl)-3-(4-(1-(trifluoromethyl)cyclopropyl)phenyl) imidazolidine-2,4-dione] here?
The IC50 was no more than 500 nM.

`CC1(C)C(=O)N(c2ccc(C3(C(F)(F)F)CC3)cc2)C(=O)N1Cc1ccnc(NCc2cnccn2)c1` [Compound 182, 5,5-dimethyl-1-((2-((pyrazin-2-ylmethyl)amino)pyridin-4-yl)methyl)-3-(4-(1-(trifluoromethyl)cyclopropyl)phenyl) imidazolidine-2,4-dione] was tested. Which IC50 did it give?
Its IC50 is no more than 500 nM.

How did the IC50 turn out when `Cn1ccnc1CNc1cc(CN2C(=O)N(c3ccc(C4(C(F)(F)F)CC4)cc3)C(=O)C2(C)C)ccn1` [Compound 183, 5,5-dimethyl-1-((2-(((1-methyl-1H-imidazol-2-yl)methyl)amino)pyridin-4-yl)methyl)-3-(4-(1-(trifluoromethyl)cyclopropyl)phenyl) imidazolidine-2,4-dione] was run?
Its IC50 is no more than 500 nM.

How did the IC50 turn out when `CC1(C)C(=O)N(c2ccc(C3(C(F)(F)F)CC3)cc2)C(=O)N1Cc1ccnc(NCc2cc[nH]n2)c1` [Compound 184, 1-((2-(((1H-pyrazol-3-yl)methyl)amino)pyridin-4-yl)methyl)-5,5-dimethyl-3-(4-(1-(trifluoromethyl)cyclopropyl)phenyl) imidazolidine-2,4-dione] was run?
Its IC50 is no more than 500 nM.

Which IC50 does the source give for `CC(C)Nc1cc(CN2C(=O)N(c3ccc4c(c3)C(O)(O)C(F)(F)S4(=O)=O)C(=O)C2(C)C)ccn1` [Compound 192, 3-(2,2-difluoro-3,3-dihydroxy-1,1-dioxido-2,3-dihydrobenzo[b]thiophen-5-yl)-1-((2-(isopropylamino)pyridin-4-yl)methyl)-5,5-dimethylimidazolidine-2,4-dione] here?
Its IC50 is greater than 10000 nM.

Which IC50 does the source give for `CC(C)Nc1cc(CN2C(=O)N(c3cnc4c(c3)OCC4(C)C)C(=O)C2(C)C)ccn1` [Compound 193, 3-(3,3-dimethyl-2,3-dihydrofuro[3,2-b]pyridin-6-yl)-1-((2-(isopropylamino)pyridin-4-yl)methyl)-5,5-dimethylimidazolidine-2,4-dione] here?
Its IC50 is 2000 to 10000 nM.
